Test results as given in publication PMC7259601 (PLoS ONE, 2020).

Assays:
rKDM1A = biological target: T1, rKDM1A (Homo sapiens, UniProt O60341); assay: Kinetics of inhibition of KDM1A; type: biochemical; settings: pure recombinant enzyme, H3K4me2 peptide
T1 construct: purchased BPS Bioscience 50100
Method: Time course experiments were performed to assess the rate of inhibition of demethylation of a H3K4me2 peptide mediated by rKDM1A, monitoring the release of H2O2 produced during the reaction using a coupled horseradish peroxidase assay using Amplex Red reagent as a substrate. Conditions were the same as for IC50 determinations, but all reagents were added simultaneously.

[1] = biological target: T2, CB2 (h) (agonist radioligand) (Homo sapiens, UniProt P34972); assay: CEREP Diversity Panel; type: binding
T2 construct: purchased CEREP (Eurofins Cerep)
Method: (§1) […]. MAO-A inhibition at 10 μM was 37%, in line with internal data.

[2] = biological target: T3, beta 1 (h) (agonist radioligand) (Homo sapiens, UniProt P08588); assay: CEREP Diversity Panel; type: binding
T3 construct: purchased CEREP (Eurofins Cerep)
Method: as §1

[3] = biological target: T4, CCK1 (CCKA) (h) (agonist radioligand) (Homo sapiens, UniProt P32238); assay: CEREP Diversity Panel; type: binding
T4 construct: purchased CEREP (Eurofins Cerep)
Method: as §1

[4] = biological target: T5, H1 (h) (antagonist radioligand) (Homo sapiens, UniProt P35367); assay: CEREP Diversity Panel; type: binding
T5 construct: purchased CEREP (Eurofins Cerep)
Method: as §1

[5] = biological target: T6, A1 (h) (antagonist radioligand) (Homo sapiens, UniProt P30542); assay: CEREP Diversity Panel; type: binding
T6 construct: purchased CEREP (Eurofins Cerep)
Method: as §1

[6] = biological target: T7, CB1 (h) (agonist radioligand) (Homo sapiens, UniProt P21554); assay: CEREP Diversity Panel; type: binding
T7 construct: purchased CEREP (Eurofins Cerep)
Method: as §1

[7] = biological target: T8, 5-HT transporter (h) (antagonist radioligand) (Homo sapiens, UniProt P31645); assay: CEREP Diversity Panel; type: binding
T8 construct: purchased CEREP (Eurofins Cerep)
Method: as §1

[8] = biological target: T9, B1 (h) (agonist radioligand) (Homo sapiens, UniProt P46663); assay: CEREP Diversity Panel; type: binding
T9 construct: purchased CEREP (Eurofins Cerep)
Method: as §1

[9] = biological target: T10, IP (PGI2) (h) (agonist radioligand) (Homo sapiens, UniProt P43119); assay: CEREP Diversity Panel; type: binding
T10 construct: purchased CEREP (Eurofins Cerep)
Method: as §1

[10] = biological target: T11, NK2 (h) (agonist radioligand) (Homo sapiens, UniProt P21452); assay: CEREP Diversity Panel; type: binding
T11 construct: purchased CEREP (Eurofins Cerep)
Method: as §1

[11] = biological target: T12, GR (h) (agonist radioligand) (Homo sapiens, UniProt P04150); assay: CEREP Diversity Panel; type: binding
T12 construct: purchased CEREP (Eurofins Cerep)
Method: as §1

[12] = biological target: T13, D3 (h) (antagonist radioligand) (Homo sapiens, UniProt P35462); assay: CEREP Diversity Panel; type: binding
T13 construct: purchased CEREP (Eurofins Cerep)
Method: as §1

[13] = biological target: T14, PPARg (h) (agonist radioligand) (Homo sapiens, UniProt P37231); assay: CEREP Diversity Panel; type: binding
T14 construct: purchased CEREP (Eurofins Cerep)
Method: as §1

[14] = biological target: T15, H3 (h) (agonist radioligand) (Homo sapiens, UniProt Q9Y5N1); assay: CEREP Diversity Panel; type: binding
T15 construct: purchased CEREP (Eurofins Cerep)
Method: as §1

[15] = biological target: T16, TRH1 (h) (agonist radioligand) (Homo sapiens, UniProt P34981); assay: CEREP Diversity Panel; type: binding
T16 construct: purchased CEREP (Eurofins Cerep)
Method: as §1

[16] = biological target: T17, NK3 (h) (antagonist radioligand) (Homo sapiens, UniProt P29371); assay: CEREP Diversity Panel; type: binding
T17 construct: purchased CEREP (Eurofins Cerep)
Method: as §1

SAMP8 mice = assay: Open Field (OF); type: in vivo, mouse; settings: 0.32 or 0.96 mg/kg/day
Method: Both male and female mice from the senescence accelerated strain SAMP8 and its control SAMR1 of different ages (see Table S3 for details) were used in these studies. Mice were breed in the animal facilities of the Pharmacy Faculty (University of Barcelona), maintained in a at 22 ± 2 °C controlled temperature in a 12 hr light / dark cycle (lights on at 8:00 am; 300 lux/0 lux) with ad libitum access to food (2018 TEKLAD, Harlan) and water. Male mice were housed individually (males) or in groups of 4-5 animals (females) in plastic colony boxes with a sawdust bedding material. […] SAMR1 mice treated with vehicle were included as a control. […] Drug concentration was calculated weekly in function of body weight and corrected in function of drinking water consumption. Cognitive function was evaluated by NORT, social behavior was evaluated by RI and anxiety and motor function were evaluated by EPM and OF. […]
A 50 × 50-cm white plastic arena with 25-cm-high walls was used to analyze spontaneous exploratory behavior. […] The movements of each animal were video recorded during 5 min. Locomotor activity was analyzed by video-tracking over the captured images using SMART® (v 2.5.21 (rat) or v3.0 (mice), PanLab, SLU, Spain).
Novel Object Recognition Test (NORT): Time exploring the novel (NO) and the familiar object (FO) was measured and a discrimination Index (DI) was defined as (NO-FO)/(NO+FO). […]

T11 sequence (P21452 whole entry): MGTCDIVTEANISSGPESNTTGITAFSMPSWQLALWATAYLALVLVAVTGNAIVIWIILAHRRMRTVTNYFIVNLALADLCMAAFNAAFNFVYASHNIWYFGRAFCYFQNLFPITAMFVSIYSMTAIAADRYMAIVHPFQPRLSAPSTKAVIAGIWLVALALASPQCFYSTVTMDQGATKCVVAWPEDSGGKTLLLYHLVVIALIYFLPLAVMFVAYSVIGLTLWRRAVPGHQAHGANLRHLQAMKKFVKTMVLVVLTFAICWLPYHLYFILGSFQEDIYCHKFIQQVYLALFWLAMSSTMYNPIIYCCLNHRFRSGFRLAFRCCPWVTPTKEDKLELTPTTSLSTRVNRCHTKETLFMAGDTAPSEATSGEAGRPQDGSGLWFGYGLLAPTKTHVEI
T7 sequence (P21554 whole entry): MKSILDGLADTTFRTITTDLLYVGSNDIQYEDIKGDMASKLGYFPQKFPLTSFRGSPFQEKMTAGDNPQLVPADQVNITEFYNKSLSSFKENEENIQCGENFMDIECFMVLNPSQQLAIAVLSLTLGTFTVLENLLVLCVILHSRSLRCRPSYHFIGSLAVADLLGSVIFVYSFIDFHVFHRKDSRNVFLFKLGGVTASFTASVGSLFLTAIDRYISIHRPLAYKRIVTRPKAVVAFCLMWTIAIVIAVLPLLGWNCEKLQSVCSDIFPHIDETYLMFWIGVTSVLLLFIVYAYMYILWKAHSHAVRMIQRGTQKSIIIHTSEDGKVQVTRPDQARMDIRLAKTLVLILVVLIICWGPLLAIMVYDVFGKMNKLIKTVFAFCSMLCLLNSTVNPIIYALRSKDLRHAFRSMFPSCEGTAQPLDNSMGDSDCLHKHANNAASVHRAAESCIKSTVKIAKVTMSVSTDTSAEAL
T13 sequence (P35462 whole entry): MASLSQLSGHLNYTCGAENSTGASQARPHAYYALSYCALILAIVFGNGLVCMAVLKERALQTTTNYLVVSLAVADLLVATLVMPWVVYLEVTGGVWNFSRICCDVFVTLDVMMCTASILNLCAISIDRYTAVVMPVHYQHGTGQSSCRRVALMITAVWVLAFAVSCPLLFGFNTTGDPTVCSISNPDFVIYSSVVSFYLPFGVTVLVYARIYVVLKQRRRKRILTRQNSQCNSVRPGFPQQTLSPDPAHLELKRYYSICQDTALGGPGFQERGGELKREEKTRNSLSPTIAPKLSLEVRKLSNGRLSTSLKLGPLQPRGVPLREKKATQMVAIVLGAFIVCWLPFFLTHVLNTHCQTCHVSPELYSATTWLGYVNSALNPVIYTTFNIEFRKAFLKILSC
T4 sequence (P32238 whole entry): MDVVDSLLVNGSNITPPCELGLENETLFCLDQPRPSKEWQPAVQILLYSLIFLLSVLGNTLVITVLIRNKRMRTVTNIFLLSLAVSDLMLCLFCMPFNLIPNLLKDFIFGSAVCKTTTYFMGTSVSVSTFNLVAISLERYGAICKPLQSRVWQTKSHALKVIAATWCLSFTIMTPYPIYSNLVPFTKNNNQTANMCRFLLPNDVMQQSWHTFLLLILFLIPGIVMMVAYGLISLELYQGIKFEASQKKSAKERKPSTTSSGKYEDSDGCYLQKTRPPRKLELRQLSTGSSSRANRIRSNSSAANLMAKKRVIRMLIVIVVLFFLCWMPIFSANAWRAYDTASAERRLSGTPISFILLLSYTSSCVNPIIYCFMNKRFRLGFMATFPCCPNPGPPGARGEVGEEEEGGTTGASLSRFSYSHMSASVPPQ
T2 sequence (P34972 whole entry): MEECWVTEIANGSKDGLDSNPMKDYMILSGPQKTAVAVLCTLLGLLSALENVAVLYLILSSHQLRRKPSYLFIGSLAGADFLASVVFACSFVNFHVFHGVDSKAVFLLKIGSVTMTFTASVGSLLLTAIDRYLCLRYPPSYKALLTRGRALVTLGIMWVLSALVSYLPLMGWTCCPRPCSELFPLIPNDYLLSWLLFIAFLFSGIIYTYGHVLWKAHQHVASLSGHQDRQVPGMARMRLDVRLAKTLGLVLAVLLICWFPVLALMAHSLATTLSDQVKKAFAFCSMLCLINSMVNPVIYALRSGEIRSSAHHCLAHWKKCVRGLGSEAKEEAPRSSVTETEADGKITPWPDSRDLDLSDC
T5 sequence (P35367 whole entry): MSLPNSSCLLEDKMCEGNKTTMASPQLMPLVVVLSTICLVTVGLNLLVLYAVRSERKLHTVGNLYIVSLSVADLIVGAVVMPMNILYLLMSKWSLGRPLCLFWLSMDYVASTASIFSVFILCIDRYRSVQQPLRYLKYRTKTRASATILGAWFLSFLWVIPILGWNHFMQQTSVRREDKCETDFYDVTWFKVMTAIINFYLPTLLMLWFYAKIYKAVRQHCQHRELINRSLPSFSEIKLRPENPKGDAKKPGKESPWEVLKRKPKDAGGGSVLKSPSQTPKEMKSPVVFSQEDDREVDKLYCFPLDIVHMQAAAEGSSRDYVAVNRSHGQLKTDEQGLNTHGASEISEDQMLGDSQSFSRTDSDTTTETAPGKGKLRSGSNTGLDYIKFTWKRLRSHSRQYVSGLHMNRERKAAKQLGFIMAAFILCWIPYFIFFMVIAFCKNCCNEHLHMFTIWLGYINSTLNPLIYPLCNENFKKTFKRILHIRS
T6 sequence (P30542 whole entry): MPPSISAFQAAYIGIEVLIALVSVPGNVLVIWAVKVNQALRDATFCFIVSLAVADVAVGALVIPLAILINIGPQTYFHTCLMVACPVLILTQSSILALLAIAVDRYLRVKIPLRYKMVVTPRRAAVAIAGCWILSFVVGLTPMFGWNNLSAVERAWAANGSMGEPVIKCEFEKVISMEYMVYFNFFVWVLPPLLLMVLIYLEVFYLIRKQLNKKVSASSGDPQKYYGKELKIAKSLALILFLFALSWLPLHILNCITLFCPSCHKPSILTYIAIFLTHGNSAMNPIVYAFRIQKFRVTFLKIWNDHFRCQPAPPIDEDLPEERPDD
T10 sequence (P43119 whole entry): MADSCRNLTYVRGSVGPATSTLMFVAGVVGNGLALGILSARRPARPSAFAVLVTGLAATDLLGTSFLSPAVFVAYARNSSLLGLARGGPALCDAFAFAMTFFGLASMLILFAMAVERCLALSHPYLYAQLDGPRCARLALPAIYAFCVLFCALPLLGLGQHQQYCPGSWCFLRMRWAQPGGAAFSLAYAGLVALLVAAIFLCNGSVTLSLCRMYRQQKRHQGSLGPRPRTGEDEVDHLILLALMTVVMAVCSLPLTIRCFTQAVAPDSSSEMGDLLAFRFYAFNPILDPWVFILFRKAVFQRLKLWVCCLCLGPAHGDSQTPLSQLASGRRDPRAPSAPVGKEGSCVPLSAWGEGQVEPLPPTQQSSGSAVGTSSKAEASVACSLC
T14 sequence (P37231 whole entry): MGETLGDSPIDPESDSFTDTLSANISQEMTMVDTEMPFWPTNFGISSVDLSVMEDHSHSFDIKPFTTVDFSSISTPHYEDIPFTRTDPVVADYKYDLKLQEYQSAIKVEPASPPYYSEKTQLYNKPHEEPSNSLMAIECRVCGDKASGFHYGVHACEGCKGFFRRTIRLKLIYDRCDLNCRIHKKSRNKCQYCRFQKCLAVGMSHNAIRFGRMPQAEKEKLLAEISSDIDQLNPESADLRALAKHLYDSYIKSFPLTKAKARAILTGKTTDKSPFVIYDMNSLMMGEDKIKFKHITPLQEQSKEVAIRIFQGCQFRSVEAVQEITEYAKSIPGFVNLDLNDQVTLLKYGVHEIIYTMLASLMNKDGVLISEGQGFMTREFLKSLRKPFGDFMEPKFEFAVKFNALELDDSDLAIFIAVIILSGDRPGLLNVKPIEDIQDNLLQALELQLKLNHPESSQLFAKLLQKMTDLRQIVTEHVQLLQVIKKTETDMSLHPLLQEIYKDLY
T9 sequence (P46663 whole entry): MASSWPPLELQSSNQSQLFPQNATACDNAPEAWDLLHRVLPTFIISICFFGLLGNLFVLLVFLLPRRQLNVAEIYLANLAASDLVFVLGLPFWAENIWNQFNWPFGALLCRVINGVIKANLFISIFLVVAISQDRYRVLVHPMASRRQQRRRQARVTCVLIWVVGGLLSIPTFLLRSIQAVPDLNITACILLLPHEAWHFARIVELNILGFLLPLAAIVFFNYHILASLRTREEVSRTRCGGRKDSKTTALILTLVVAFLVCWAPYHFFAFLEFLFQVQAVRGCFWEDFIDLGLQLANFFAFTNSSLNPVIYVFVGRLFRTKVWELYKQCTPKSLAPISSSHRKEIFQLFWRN
T3 sequence (P08588 whole entry): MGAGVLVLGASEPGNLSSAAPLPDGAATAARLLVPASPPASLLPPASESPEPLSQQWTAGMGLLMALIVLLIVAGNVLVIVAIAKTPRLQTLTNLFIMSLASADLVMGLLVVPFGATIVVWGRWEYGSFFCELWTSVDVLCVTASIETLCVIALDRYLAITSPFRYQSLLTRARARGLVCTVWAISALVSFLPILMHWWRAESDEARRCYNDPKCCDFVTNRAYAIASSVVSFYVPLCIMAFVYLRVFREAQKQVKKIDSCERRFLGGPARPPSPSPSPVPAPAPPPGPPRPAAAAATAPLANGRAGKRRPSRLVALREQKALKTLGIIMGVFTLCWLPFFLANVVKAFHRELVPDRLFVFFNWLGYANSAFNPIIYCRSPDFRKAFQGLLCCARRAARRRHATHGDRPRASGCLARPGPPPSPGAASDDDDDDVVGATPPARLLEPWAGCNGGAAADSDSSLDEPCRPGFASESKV

Which results are given for `Nc1nnc(CN[C@@H]2C[C@H]2c2ccc(OCc3ccccc3)cc2)o1` [ORY-2001, vafidemstat]?
KI (inactivation) (rKDM1A): 1800 nM; inhibition at 10 µM [1]: 14%; inhibition at 10 µM [2]: 7%; inhibition at 10 µM [3]: -2%; inhibition at 10 µM [4]: -9%; inhibition at 10 µM [5]: 0%; inhibition at 10 µM [6]: 5%; inhibition at 10 µM [7]: 2%; inhibition at 10 µM [8]: -1%; inhibition at 10 µM [9]: 31%; inhibition at 10 µM [10]: 2%; inhibition at 10 µM [11]: -9%; inhibition at 10 µM [12]: 8%; inhibition at 10 µM [13]: 4%; inhibition at 10 µM [14]: -1%; inhibition at 10 µM [15]: 3%; inhibition at 10 µM [16]: 2%; locomotor activity in the OF test (SAMP8 mice): no significant genotype or treatment differences
